According to patent US6339088B1, “Composition for treatment of external secretion disorders except hypol acrimation” (R-Tech Ueno. Ltd., priority 1999, dated 2002):

Legend:
Male Sprague-Dawley rats = assay: Effect on saliva secretion in rats (filter-paper infiltration distance); assay type: in vivo, rat; details: 50 μL of 0.3% solution intraorally three times a day on Day 1 and 2, measured Day 3 one hour after administration
Method: [3-(4-Bromo-2-fluorobenzyl)-7-chloro-2,4-dioxo-1,2,3,4-tetrahydroquinazolin-1-yl]acetate, a compound represented by the general formula (II) having aldose reductase-inhibiting effect as an active ingredient was used for preparation of a 0.3% solution.
Male Sprague-Dawley rats (aged 7 weeks) were used. The rats were intraorally administered with 50 μL of the 0.3% solution or distilled water three times a day (10:00, 14:00, 18:00) on Day 1 and Day 2. On Day 3, the time upon lapse of one hour after the administration at 10:00 and 14:00, a strip of filter-paper (Schirmer Tear Production Measuring Strips: SHOWA YAKUHIN KAKO CO., LTD.) with the length of 37 mm and width of 5 mm was inserted between the lower teeth gums and the lower jaw of the rat to absorb the saliva into the filter-paper. The infiltration distance of the saliva into the filter-paper was measured every 1 minute for 5 minutes.

diabetic patient = assay: Saliva secretion in a diabetic patient after instillation of 0.3% eye drops; assay type: in vivo, human; details: 0.3% eye drops instilled four times a day, sixth day after start of administration
Text: [3-(4-Bromo-2-fluorobenzyl)-7-chloro-2,4-dioxo-1,2,3,4-tetrahydroquinazolin-1-yl]acetate, a compound represented by the general formula (II) having aldose reductase-inhibiting effect as an active ingredient was used for preparation of a 0.3% eye drops.
The 0.3% eye drops was instilled to a diabetic patient four times a day.

O=C(O)Cn1c(=O)n(Cc2ccc(Br)cc2F)c(=O)c2ccc(Cl)cc21 [formula (II), [3-(4-bromo-2-fluorobenzyl)-7-chloro-2,4-dioxo-1,2,3,4-tetrahydroquinazolin-1-yl]acetate]
The infiltration distance of the saliva into filter-paper, mm, mean ± S.E., after 1 min. (Male Sprague-Dawley rats; after 1 min.): 8.1 ± 1.5 mm
The infiltration distance of the saliva into filter-paper, mm, mean ± S.E., after 2 min. (Male Sprague-Dawley rats; after 2 min.): 10.6 ± 1.8 mm
The infiltration distance of the saliva into filter-paper, mm, mean ± S.E., after 3 min. (Male Sprague-Dawley rats; after 3 min., * P<0.05 vs control): 12.6 ± 2.0* mm
The infiltration distance of the saliva into filter-paper, mm, mean ± S.E., after 4 min. (Male Sprague-Dawley rats; after 4 min., * P<0.05 vs control): 13.6 ± 2.1* mm
The infiltration distance of the saliva into filter-paper, mm, mean ± S.E., after 5 min. (Male Sprague-Dawley rats; after 5 min.): 14.5 ± 2.3 mm
saliva secretion (diabetic patient): obvious sthenia of saliva secretion
